# Measured values taken from paper PMC5218480 (PLoS ONE, 2017).
# Tested on: MV-4-11 cells
# Assay: Gene expression microarray analysis (Affymetrix PrimeView) and GSEA
# Format: cell-based, human
# Parameters: RFU PODN (11730768_x_at) / Fold change /veh PODN (11730768_x_at) / RFU LINC00158 (11744669_a_at) / Fold change /veh LINC00158 (11744669_a_at) / RFU DUSP10 (11751237_a_at) / Fold change /veh DUSP10 (11751237_a_at) / RFU ID3 (11757404_x_at) / Fold change /veh ID3 (11757404_x_at) / RFU PLEKHG5 (11737974_s_at) / Fold change /veh PLEKHG5 (11737974_s_at) / RFU LRRC4B (11730491_at) / Fold change /veh LRRC4B (11730491_at) / RFU GIMAP4 (11747438_a_at) / Fold change /veh GIMAP4 (11747438_a_at) / RFU KRT8 (11758183_x_at) / Fold change /veh KRT8 (11758183_x_at) / RFU CNN1 (11734310_a_at) / Fold change /veh CNN1 (11734310_a_at) / RFU VPS37D (11726825_at) / Fold change /veh VPS37D (11726825_at) / RFU C10orf10 (11716522_x_at) / Fold change /veh C10orf10 (11716522_x_at) / RFU KIR2DL2 /// KIR2DL4 /// KIR2DL5A /// KIR2DL5B /// KIR2DS1 /// KIR2DS2 /// KIR2DS3 /// KIR2DS4 /// KIR3DL3 /// KIR3DL3 /// KIR3DS1 (11738374_at) / Fold change /veh KIR2DL2 /// KIR2DL4 /// KIR2DL5A /// KIR2DL5B /// KIR2DS1 /// KIR2DS2 /// KIR2DS3 /// KIR2DS4 /// KIR3DL3 /// KIR3DL3 /// KIR3DS1 (11738374_at) / RFU C1QL1 (11718748_at) / Fold change /veh C1QL1 (11718748_at) / RFU TMPRSS4 (11747572_a_at) / Fold change /veh TMPRSS4 (11747572_a_at) / RFU HAMP (11756126_x_at) / Fold change /veh HAMP (11756126_x_at) / RFU RNFT2 (11725882_a_at) / Fold change /veh RNFT2 (11725882_a_at) / RFU NR4A2 (11747474_a_at) / Fold change /veh NR4A2 (11747474_a_at) / RFU ABCC12 (11746883_a_at) / Fold change /veh ABCC12 (11746883_a_at) / RFU TMEM136 (11760407_x_at) / Fold change /veh TMEM136 (11760407_x_at) / RFU CLDN22 /// WWC2 (11732394_at) / Fold change /veh CLDN22 /// WWC2 (11732394_at) / RFU HLA-DPB1 (11760878_x_at) / Fold change /veh HLA-DPB1 (11760878_x_at) / RFU SPINT1 (11716480_a_at) / Fold change /veh SPINT1 (11716480_a_at) / RFU GAP43 (11754022_s_at) / Fold change /veh GAP43 (11754022_s_at) / RFU A4GNT (11735810_at) / Fold change /veh A4GNT (11735810_at) / RFU PRB3 (11715151_x_at) / Fold change /veh PRB3 (11715151_x_at) / RFU TUBB4B (11761932_at) / Fold change /veh TUBB4B (11761932_at) / RFU CAPN14 (11732068_a_at) / Fold change /veh CAPN14 (11732068_a_at) / RFU TMCC2 (11721928_a_at) / Fold change /veh TMCC2 (11721928_a_at) / RFU IRGQ (11745062_a_at) / Fold change /veh IRGQ (11745062_a_at) / RFU FAM174B (11720279_a_at) / Fold change /veh FAM174B (11720279_a_at) / RFU TMPRSS4 (11748680_a_at) / Fold change /veh TMPRSS4 (11748680_a_at) / RFU FAM212B (11763350_a_at) / Fold change /veh FAM212B (11763350_a_at) / RFU PLEKHG5 (11743358_a_at) / Fold change /veh PLEKHG5 (11743358_a_at) / RFU ZSCAN30 (11745921_a_at) / Fold change /veh ZSCAN30 (11745921_a_at) / RFU CMKLR1 (11741424_a_at) / Fold change /veh CMKLR1 (11741424_a_at) / RFU LOC101060620 /// MAPK8IP1 (11723275_at) / Fold change /veh LOC101060620 /// MAPK8IP1 (11723275_at) / RFU SPTSSB (11747773_x_at) / Fold change /veh SPTSSB (11747773_x_at) / RFU PRSS12 (11739890_at) / Fold change /veh PRSS12 (11739890_at) / RFU BIN1 (11741810_x_at) / Fold change /veh BIN1 (11741810_x_at) / RFU WNT11 (11732464_a_at) / Fold change /veh WNT11 (11732464_a_at) / RFU C10orf10 (11716521_a_at) / Fold change /veh C10orf10 (11716521_a_at) / RFU C5orf56 (11738089_at) / Fold change /veh C5orf56 (11738089_at) / RFU CYB561 (11721691_x_at) / Fold change /veh CYB561 (11721691_x_at) / RFU ANKRD19P (11752326_a_at) / Fold change /veh ANKRD19P (11752326_a_at) / RFU OR2T12 /// OR2T33 /// OR2T8 (11738714_s_at) / Fold change /veh OR2T12 /// OR2T33 /// OR2T8 (11738714_s_at) / RFU VCAN (11748164_a_at) / Fold change /veh VCAN (11748164_a_at) / RFU JSRP1 (11732532_at) / Fold change /veh JSRP1 (11732532_at) / RFU KRTAP10-11 (11738290_x_at) / Fold change /veh KRTAP10-11 (11738290_x_at) / RFU MYO3A (11730013_a_at) / Fold change /veh MYO3A (11730013_a_at) / RFU EBF3 (11725865_a_at) / Fold change /veh EBF3 (11725865_a_at) / RFU CAMK2N1 (11719241_x_at) / Fold change /veh CAMK2N1 (11719241_x_at) / RFU C5orf56 (11738088_a_at) / Fold change /veh C5orf56 (11738088_a_at) / RFU OLFML3 (11715873_a_at) / Fold change /veh OLFML3 (11715873_a_at) / RFU LOC100653217 /// NTM (11731650_a_at) / Fold change /veh LOC100653217 /// NTM (11731650_a_at) / RFU MAPK11 (11762145_a_at) / Fold change /veh MAPK11 (11762145_a_at) / RFU FIZ1 (11724087_x_at) / Fold change /veh FIZ1 (11724087_x_at) / RFU OASL (11726364_x_at) / Fold change /veh OASL (11726364_x_at) / RFU SOX15 (11748057_x_at) / Fold change /veh SOX15 (11748057_x_at) / RFU CD79A (11719716_a_at) / Fold change /veh CD79A (11719716_a_at) / RFU HIST1H1D (11736915_at) / Fold change /veh HIST1H1D (11736915_at) / RFU CASKIN2 (11723855_a_at) / Fold change /veh CASKIN2 (11723855_a_at) / RFU LOC730098 (11760151_x_at) / Fold change /veh LOC730098 (11760151_x_at) / RFU OR4N2 (11742367_at) / Fold change /veh OR4N2 (11742367_at) / RFU PRRT2 (11749266_a_at) / Fold change /veh PRRT2 (11749266_a_at) / RFU SNX32 (11753110_a_at) / Fold change /veh SNX32 (11753110_a_at) / RFU CDHR5 (11726645_a_at) / Fold change /veh CDHR5 (11726645_a_at) / RFU RCAN1 (11760418_a_at) / Fold change /veh RCAN1 (11760418_a_at) / RFU FAM167A (11723789_a_at) / Fold change /veh FAM167A (11723789_a_at) / RFU FAM26E (11764081_at) / Fold change /veh FAM26E (11764081_at) / RFU ISYNA1 (11749810_s_at) / Fold change /veh ISYNA1 (11749810_s_at) / RFU ACY1 (11761880_at) / Fold change /veh ACY1 (11761880_at) / RFU 11764098_at / Fold change /veh 11764098_at / RFU SAMD14 (11745864_x_at) / Fold change /veh SAMD14 (11745864_x_at) / RFU NPB (11741838_a_at) / Fold change /veh NPB (11741838_a_at) / RFU TMPRSS6 (11731388_a_at) / Fold change /veh TMPRSS6 (11731388_a_at) / RFU KRTAP10-2 (11738614_at) / Fold change /veh KRTAP10-2 (11738614_at) / RFU ARHGAP8 /// PRR5-ARHGAP8 (11727945_x_at) / Fold change /veh ARHGAP8 /// PRR5-ARHGAP8 (11727945_x_at) / RFU KRTAP5-7 /// NADSYN1 (11734609_at) / Fold change /veh KRTAP5-7 /// NADSYN1 (11734609_at) / RFU RASL12 (11751679_a_at) / Fold change /veh RASL12 (11751679_a_at) / RFU CDKN2B (11736163_a_at) / Fold change /veh CDKN2B (11736163_a_at) / RFU PRF1 (11729649_at) / Fold change /veh PRF1 (11729649_at) / RFU, ZNF638 /// ZNF638-IT1 / Fold change vs veh, ZNF638 /// ZNF638-IT1 / RFU, PANK3 / Fold change vs veh, PANK3 / RFU, SH3YL1 / Fold change vs veh, SH3YL1 / RFU, ZEB2 / Fold change vs veh, ZEB2 / RFU, NRIP1 / Fold change vs veh, NRIP1 / RFU, PTTG1IP / Fold change vs veh, PTTG1IP / RFU, CAPN2 / Fold change vs veh, CAPN2 / RFU, MED14 / Fold change vs veh, MED14 / RFU, SNORA58 / Fold change vs veh, SNORA58 / RFU, C1orf63 / Fold change vs veh, C1orf63 / RFU, LRRFIP1 / Fold change vs veh, LRRFIP1 / RFU, NDUFAF7 / Fold change vs veh, NDUFAF7 / RFU, SLC12A2 / Fold change vs veh, SLC12A2 / RFU, IBTK / Fold change vs veh, IBTK / RFU, ESF1 / Fold change vs veh, ESF1 / Fold change vs veh, TMEM50B / RFU, TAOK1 / Fold change vs veh, TAOK1 / RFU, ACBD3 / Fold change vs veh, ACBD3 / RFU, TMA16 / Fold change vs veh, TMA16 / RFU, RWDD3 / Fold change vs veh, RWDD3 / RFU, BCAT1 / Fold change vs veh, BCAT1 / RFU, EDEM3 / Fold change vs veh, EDEM3 / RFU, TMEM33 / Fold change vs veh, TMEM33 / RFU, WDR75 / Fold change vs veh, WDR75 / RFU, AHCTF1 / Fold change vs veh, AHCTF1 / RFU, TFRC / Fold change vs veh, TFRC / RFU, ZDHHC17 / Fold change vs veh, ZDHHC17 / RFU, NOM1 / Fold change vs veh, NOM1 / RFU, ARL8B / Fold change vs veh, ARL8B / RFU, ZBTB11 / Fold change vs veh, ZBTB11 / RFU, TAMM41 / Fold change vs veh, TAMM41 / RFU, KIAA1704 /// LOC100996395 / Fold change vs veh, KIAA1704 /// LOC100996395 / RFU, ING1 / Fold change vs veh, ING1 / RFU, TRMT61B / Fold change vs veh, TRMT61B / RFU, FUBP3 / Fold change vs veh, FUBP3 / RFU, TP53 / Fold change vs veh, TP53 / RFU, TNKS2 / Fold change vs veh, TNKS2 / RFU, ZFP14 / Fold change vs veh, ZFP14 / RFU, ACTR2 / Fold change vs veh, ACTR2 / RFU, PPP3R1 / Fold change vs veh, PPP3R1 / RFU, PIK3R1 / Fold change vs veh, PIK3R1 / RFU, HNRNPA1 / Fold change vs veh, HNRNPA1 / RFU, RNF170 / Fold change vs veh, RNF170 / RFU, ZNF28 / Fold change vs veh, ZNF28 / RFU, RNGTT / Fold change vs veh, RNGTT / RFU, OGT / Fold change vs veh, OGT / RFU, BRD1 / Fold change vs veh, BRD1 / RFU, MARS / Fold change vs veh, MARS / RFU, ZNF655 / Fold change vs veh, ZNF655 / RFU, FAHD1 / Fold change vs veh, FAHD1 / RFU, BDP1 / Fold change vs veh, BDP1 / RFU, LRRCC1 / Fold change vs veh, LRRCC1 / RFU, ARID1A / Fold change vs veh, ARID1A / RFU, ZNF146 / Fold change vs veh, ZNF146 / RFU, ZNF330 / Fold change vs veh, ZNF330 / RFU, GPN3 / Fold change vs veh, GPN3 / RFU, C9orf123 / Fold change vs veh, C9orf123 / RFU, N4BP2L2 / Fold change vs veh, N4BP2L2 / RFU, ARFIP1 / Fold change vs veh, ARFIP1 / RFU, FAM179B / Fold change vs veh, FAM179B / RFU, BCL10 / Fold change vs veh, BCL10 / RFU, UHRF1BP1L / Fold change vs veh, UHRF1BP1L / RFU, BET1 / Fold change vs veh, BET1 / RFU, CNOT2 / Fold change vs veh, CNOT2 / RFU, ZNF268 / Fold change vs veh, ZNF268 / Fold change vs veh, ZNF507 / RFU, DGCR2 / Fold change vs veh, DGCR2 / RFU, WDSUB1 / Fold change vs veh, WDSUB1 / Fold change vs veh, HSP90B1 /// MIR3652 / RFU, ADSS / Fold change vs veh, ADSS / RFU, GK / Fold change vs veh, GK / RFU, ZNF148 / Fold change vs veh, ZNF148 / RFU, TAF9 / Fold change vs veh, TAF9 / RFU, SLC1A5 / Fold change vs veh, SLC1A5 / RFU, SLMO2 / Fold change vs veh, SLMO2 / RFU, ABCC4 / Fold change vs veh, ABCC4 / RFU, LOC101060439 /// RAP1B / Fold change vs veh, LOC101060439 /// RAP1B / RFU, RFX7 / Fold change vs veh, RFX7 / RFU, GTPBP10 / Fold change vs veh, GTPBP10 / RFU, CNEP1R1 / Fold change vs veh, CNEP1R1 / RFU, BIVM-ERCC5 /// ERCC5 / Fold change vs veh, BIVM-ERCC5 /// ERCC5 / RFU, ILF3 / Fold change vs veh, ILF3 / RFU 11762660_at / Fold change /veh 11762660_at / RFU VCAN (11757783_s_at) / Fold change /veh VCAN (11757783_s_at) / RFU DDX43 (11728927_at) / Fold change /veh DDX43 (11728927_at) / RFU KRT8 (11758188_x_at) / Fold change /veh KRT8 (11758188_x_at) / RFU NKD1 (11759106_at) / Fold change /veh NKD1 (11759106_at) / RFU SRD5A1 (11742802_a_at) / Fold change /veh SRD5A1 (11742802_a_at) / RFU TPSAB1 /// TPSB2 (11721975_s_at) / Fold change /veh TPSAB1 /// TPSB2 (11721975_s_at) / RFU GSTM3 (11746129_a_at) / Fold change /veh GSTM3 (11746129_a_at) / RFU IL23R (11737362_x_at) / Fold change /veh IL23R (11737362_x_at) / RFU TMEM51 (11727254_a_at) / Fold change /veh TMEM51 (11727254_a_at) / RFU PIWIL2 (11732686_x_at) / Fold change /veh PIWIL2 (11732686_x_at) / RFU ORM1 (11744905_x_at) / Fold change /veh ORM1 (11744905_x_at) / RFU CCDC152 (11743942_at) / Fold change /veh CCDC152 (11743942_at) / RFU ECM1 (11717891_a_at) / Fold change /veh ECM1 (11717891_a_at) / RFU IL23R (11748794_a_at) / Fold change /veh IL23R (11748794_a_at) / RFU TNFAIP8L3 (11732012_x_at) / Fold change /veh TNFAIP8L3 (11732012_x_at) / RFU MBOAT4 (11741988_at) / Fold change /veh MBOAT4 (11741988_at) / RFU 11764193_at / Fold change /veh 11764193_at / RFU TMEM53 (11763286_at) / Fold change /veh TMEM53 (11763286_at) / RFU MAGEB2 (11727129_at) / Fold change /veh MAGEB2 (11727129_at) / RFU TMEM200A (11744735_a_at) / Fold change /veh TMEM200A (11744735_a_at) / RFU CCDC152 (11751479_a_at) / Fold change /veh CCDC152 (11751479_a_at) / RFU FAM211A (11726209_a_at) / Fold change /veh FAM211A (11726209_a_at) / RFU RGS16 (11746705_a_at) / Fold change /veh RGS16 (11746705_a_at) / RFU VCAN (11755009_s_at) / Fold change /veh VCAN (11755009_s_at) / RFU RHOB (11743442_s_at) / Fold change /veh RHOB (11743442_s_at) / RFU RGS16 (11720943_a_at) / Fold change /veh RGS16 (11720943_a_at) / RFU RGS16 (11720944_at) / Fold change /veh RGS16 (11720944_at) / RFU, VPS4B / Fold change vs veh, VPS4B / RFU, CREB1 / Fold change vs veh, CREB1 / RFU, DNAJC13 / Fold change vs veh, DNAJC13 / RFU, GNAQ / Fold change vs veh, GNAQ / RFU, CDK5R1 / Fold change vs veh, CDK5R1 / RFU, ZRANB3 / Fold change vs veh, ZRANB3 / RFU, CUL4A / Fold change vs veh, CUL4A / RFU, CCNY / Fold change vs veh, CCNY / RFU, UFL1 / Fold change vs veh, UFL1 / RFU, COG3 / Fold change vs veh, COG3 / RFU, DIAPH2 / Fold change vs veh, DIAPH2 / RFU, SKA2 / Fold change vs veh, SKA2 / RFU, AFF3 / Fold change vs veh, AFF3 / RFU, LMF1 / Fold change vs veh, LMF1 / RFU, IPO11 / Fold change vs veh, IPO11 / RFU, DFFB / Fold change vs veh, DFFB / RFU, FOXP1 / Fold change vs veh, FOXP1 / RFU, CARD8 / Fold change vs veh, CARD8 / RFU, STRN3 / Fold change vs veh, STRN3 / RFU, ADK / Fold change vs veh, ADK / RFU, RASSF2 / Fold change vs veh, RASSF2 / RFU, WIPF1 / Fold change vs veh, WIPF1 / RFU, LARP1B / Fold change vs veh, LARP1B / RFU, RASA1 / Fold change vs veh, RASA1 / RFU, RB1 / Fold change vs veh, RB1 / RFU, PPFIA1 / Fold change vs veh, PPFIA1 / RFU, MAT2A / Fold change vs veh, MAT2A / RFU, CCT5 / Fold change vs veh, CCT5 / RFU, WDR92 / Fold change vs veh, WDR92 / RFU, CUX1 / Fold change vs veh, CUX1 / RFU, TTC7A / Fold change vs veh, TTC7A / RFU, TMEM135 / Fold change vs veh, TMEM135 / RFU, DEPTOR / Fold change vs veh, DEPTOR / RFU, CPM / Fold change vs veh, CPM / RFU, DNAJB6 / Fold change vs veh, DNAJB6 / RFU, CACNA2D3 / Fold change vs veh, CACNA2D3 / RFU, DTX4 / Fold change vs veh, DTX4 / RFU, TFCP2 / Fold change vs veh, TFCP2 / RFU, GMCL1 /// GMCL1P1 / Fold change vs veh, GMCL1 /// GMCL1P1 / RFU, AEBP2 / Fold change vs veh, AEBP2 / RFU, SNHG1 /// SNORD22 /// SNORD25 /// SNORD26 /// SNORD27 /// SNORD28 /// SNORD29 /// SNORD31 / Fold change vs veh, SNHG1 /// SNORD22 /// SNORD25 /// SNORD26 /// SNORD27 /// SNORD28 /// SNORD29 /// SNORD31 / Fold change (Aza/veh), C12orf56 (ProbeSet 11735607_a_at) / Fold change (ACY-1035/veh), C12orf56 (ProbeSet 11735607_a_at) / Fold change (Aza/veh), FGFR1OP (ProbeSet 11751329_s_at) / Fold change (ACY-1035/veh), FGFR1OP (ProbeSet 11751329_s_at) / Fold change (Aza/veh), VPS36 (ProbeSet 11739960_a_at) / Fold change (ACY-1035/veh), VPS36 (ProbeSet 11739960_a_at) / RFU SYPL1 (11715823_x_at) / Fold change /veh SYPL1 (11715823_x_at) / RFU IGFBP7 (11715501_s_at) / Fold change /veh IGFBP7 (11715501_s_at) / RFU REEP3 (11722064_at) / Fold change /veh REEP3 (11722064_at) / RFU IGLL1 (11728026_x_at) / Fold change /veh IGLL1 (11728026_x_at): dose or concentration left out as unconfirmed
# Conditions: MV-4-11 cells, 48 hours
compound,measurement,value
Nc1ccc(-c2cccs2)cc1NC(=O)c1ccc2c(c1)cc(C1CC1)n2CCN1CCOCC1 [ACY-1035],RFU VPS37D (11726825_at),17.46 RFU
